Consider twelve compounds from ChEMBL document CHEMBL1201862, “PubChem BioAssay data set” (2004).

What all share (experiment): inhibition of tumour cell growth, NCI panel, 48 h
In assay [1] the test system is HOP-92.
Assay [2] deals with RXF 393.
In assay [3] the test system is SN12C.
Assay [4] concerns NCI-H23.
In assay [5] the test system is RPMI-8226.
The subject of assay [6] is OVCAR-8.
Assay [7] concerns OVCAR-3.
The subject of assay [8] is A549.
The test system of assay [9] is UACC-257.
Assay [10] deals with CCRF-CEM.
Assay [11] has as its system ACHN.
Assay [12] deals with OVCAR-5.
For assay [13], the system named is TK-10.
Assay [14] relates to NCI-H226.
Assay [15] has as its system 786-0.
Assay [16] has as its system NCI-H460.
Assay [17] concerns OVCAR-4.
The subject of assay [18] is A498.
In assay [19] the test system is HOP-62.

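1) Cells in 96-well plates. 2) Compound, 48 h, 5 concentrations. 3) Linear interpolation between surrounding doses. 4) Unreached endpoint = highest concentration. Abbreviation: GI50, concentration required for 50% inhibition of growth.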 Active and inactive are the calls of the source. Rule as the data show it: active = GI50 up to about 1.1 µM and inactive = higher.

Regarding `O=C(O)C1=C(O)C(C(=O)O)C23CCCCCCCCCCC12C(C(=O)O)C(O)=C3C(=O)O` (configuration not stated), the GI50 in [1], in [2], in [3], in [4], in assay [5] and in assay [6] was > 100 µM (inactive) in each case. Moreover, the GI50 in assay [7], in [8], in assay [9], in [10], in assay [11] and in [12] was > 100 µM (inactive) throughout. Further, the GI50 in [13], in [14], in [15] and in assay [16] was > 100 µM (inactive) each time.
For `CC1(S)CC2C(CC1Sc1ccccc1)C2(C)C` (configuration not stated), the GI50 in [1], in [17], in assay [3], in assay [4], in assay [5] and in assay [6] was > 100 µM (inactive) in each case. Further, the GI50 in assay [7], in [8], in assay [9], in assay [10], in assay [11] and in [12] was > 100 µM (inactive) each time. The GI50 in assay [13], in assay [14], in [15] and in assay [16] was > 100 µM (inactive) in each case.
On to `CS(=O)(=O)OC1CCC2(C#N)CCC1C2=O` (configuration not stated), for which the GI50 in [2] was > 100 µM (inactive); in assay [17] it was > 100 µM (inactive); in assay [3], > 100 µM (inactive); in assay [4] it was > 100 µM (inactive); in assay [5], 21.9 µM (inactive); in [6], > 100 µM (inactive). For the same compound, the GI50 in assay [18], in assay [7], in [8], in [9], in assay [10] and in [11] was > 100 µM (inactive) each time. For the same compound, the GI50 is > 100 µM (inactive) in [12]; > 100 µM (inactive) in assay [13]; > 100 µM (inactive) in [14]; 79.6 µM (inactive) in [15]; > 100 µM (inactive) in assay [19]; 95.3 µM (inactive) in assay [16].
`Cc1cccc(NC(=O)C(=O)C(C2OC(=O)c3ccccc32)[N+](=O)[O-])c1C` (configuration not stated): the GI50 in [2] is 6.87 µM (inactive); in [17] it was 8.11 µM (inactive); in assay [3] it was 6.34 µM (inactive); in assay [4], 5.46 µM (inactive); in [6], 13.2 µM (inactive); in assay [18], 15.7 µM (inactive). Further, the GI50 was 2.08 µM (inactive) in assay [7]; 18.3 µM (inactive) in assay [8]; 5.61 µM (inactive) in assay [9]; 3.52 µM (inactive) in [10]; 10.9 µM (inactive) in assay [11]; 19.1 µM (inactive) in assay [12]. Moreover, the GI50 in assay [13] was 18 µM (inactive); in assay [14] it was 12.6 µM (inactive); in assay [15] it was 10.2 µM (inactive); in assay [19], 17.2 µM (inactive); in assay [16], 6 µM (inactive).
For `COC(=O)c1cccc2c3ccccc3c3ccccc3c12`, the GI50 in assay [2] is 24 µM (inactive); in assay [17], 64.3 µM (inactive); in assay [3], 45.4 µM (inactive); in assay [4], 23.1 µM (inactive); in assay [6], 24.4 µM (inactive); in [18], 20.2 µM (inactive). In addition, the GI50 is 21.4 µM (inactive) in assay [7]; 44.5 µM (inactive) in assay [8]; 38.3 µM (inactive) in assay [9]; 27.5 µM (inactive) in assay [10]; 79.3 µM (inactive) in [11]; 49.1 µM (inactive) in assay [12]. Further, the GI50 in assay [13] is 46.5 µM (inactive); in assay [14], > 100 µM (inactive); in assay [15], 42.8 µM (inactive); in assay [19] it was > 100 µM (inactive).
Regarding `CC(=O)Nc1ccc(/C=c2\sc3nnc(/C=C/c4ccccc4)n3c2=O)cc1`, the GI50 in assay [2], in assay [17], in assay [3], in assay [4], in assay [5] and in assay [6] was > 50 µM (inactive) each time. Besides, the GI50 in assay [18], in assay [7], in assay [8], in [9], in assay [10] and in assay [11] was > 50 µM (inactive) each time. For the same compound, the GI50 in assay [12], in assay [13], in [14], in [15], in assay [19] and in assay [16] was > 50 µM (inactive) each time.
For `CN(C)c1ncnc2c1Cc1ccccc1C(=O)N2C`, the GI50 in assay [1], in [2], in assay [17], in [3], in assay [4] and in [5] was > 100 µM (inactive) in each case. Also, the GI50 in assay [6], in assay [7], in assay [8], in [9], in assay [10] and in [11] was > 100 µM (inactive) in each case. Besides, the GI50 in [12], in assay [13], in [14], in assay [15], in assay [19] and in assay [16] was > 100 µM (inactive) each time.
Take `Cc1ccc(/C=C/C(=O)c2ccc(Cl)c(Cl)c2)cc1`: the GI50 in assay [2] is 84.1 µM (inactive); in assay [17], > 100 µM (inactive); in assay [3], > 100 µM (inactive); in assay [4] it was > 100 µM (inactive); in assay [6], > 100 µM (inactive); in assay [18] it was > 100 µM (inactive). Moreover, the GI50 in [7], in assay [8], in [9], in assay [10], in assay [11] and in assay [12] was > 100 µM (inactive) throughout. The GI50 in [13], in assay [14], in assay [15], in [19] and in assay [16] was > 100 µM (inactive) in each case.
`S=C1NCCN1`: the GI50 in [1], in assay [17], in [3], in [4], in [5] and in [6] was > 100 µM (inactive) each time. Moreover, the GI50 in [7], in assay [8], in assay [9], in assay [10], in assay [11] and in [12] was > 100 µM (inactive) each time. Also, the GI50 in assay [13], in [14], in [15] and in [19] was > 100 µM (inactive) each time.
In the case of `COc1ccc(C(=O)C(c2ccc(OC)cc2)C2(O)C(=O)Nc3ccccc32)cc1` (configuration not stated), the GI50 in assay [1], in assay [3], in assay [4], in assay [5], in assay [7] and in assay [8] was > 100 µM (inactive) in each case. Moreover, the GI50 in assay [9], in assay [10], in [11], in assay [13], in [14] and in assay [15] was > 100 µM (inactive) throughout.
On to `COC(=O)C1=C(C)N(NC(=O)c2ccccc2)C(C)(O)C12CCOC2=O` (configuration not stated), for which the GI50 in assay [17], in assay [3], in assay [4], in assay [5], in [6] and in assay [18] was > 100 µM (inactive) throughout. Besides, the GI50 in assay [7], in [8], in assay [9], in assay [10], in [11] and in assay [12] was > 100 µM (inactive) in each case. Further, the GI50 in assay [13] was > 100 µM (inactive); in [14], > 100 µM (inactive); in [15] it was 0.195 µM (active); in [19] it was > 100 µM (inactive); in [16] it was > 100 µM (inactive).
`Cn1c(=O)c(C(c2ccccc2)c2c(O)c3ccccc3n(C)c2=O)c(O)c2ccccc21`: the GI50 in [1] was > 100 µM (inactive); in [2], > 100 µM (inactive); in assay [17] it was 53.6 µM (inactive); in assay [3] it was > 100 µM (inactive); in assay [4], > 100 µM (inactive); in assay [5] it was > 100 µM (inactive). The GI50 was > 100 µM (inactive) in assay [6]; > 100 µM (inactive) in assay [7]; > 100 µM (inactive) in assay [8]; > 100 µM (inactive) in [9]; > 100 µM (inactive) in assay [11]; 23.2 µM (inactive) in assay [12]. In addition, the GI50 in assay [13] was > 100 µM (inactive); in [14], 0.0283 µM (active); in [15], > 100 µM (inactive); in assay [16] it was > 100 µM (inactive).
